Results: patent publication US11512097B2, “Heterocyclic compounds as Delta-5 desaturase inhibitors and methods of use” (Amgen Inc., priority 2019, dated 2022)
pIC50: −log10 of the molar value.

Legend:
[1] = target: T1, Delta-5-Desaturase (D5D), membrane preparations of D5D-overexpressing HEK293 6E cells (Homo sapiens, UniProt O60427); test: In vitro measurement of Delta-5-Desaturase inhibitory activity using DGLA-CoA and Arachidonyl-CoA mass spectrometric assays; type: biochemical; conditions: D5D membrane 10 μg/mL, one-hour incubation, average of at least two independent runs
T1 construct: expressed in transfected cells; host or cells: HEK293 6E cells (membrane preparation)
T1 sequence (O60427 whole entry, species assumed): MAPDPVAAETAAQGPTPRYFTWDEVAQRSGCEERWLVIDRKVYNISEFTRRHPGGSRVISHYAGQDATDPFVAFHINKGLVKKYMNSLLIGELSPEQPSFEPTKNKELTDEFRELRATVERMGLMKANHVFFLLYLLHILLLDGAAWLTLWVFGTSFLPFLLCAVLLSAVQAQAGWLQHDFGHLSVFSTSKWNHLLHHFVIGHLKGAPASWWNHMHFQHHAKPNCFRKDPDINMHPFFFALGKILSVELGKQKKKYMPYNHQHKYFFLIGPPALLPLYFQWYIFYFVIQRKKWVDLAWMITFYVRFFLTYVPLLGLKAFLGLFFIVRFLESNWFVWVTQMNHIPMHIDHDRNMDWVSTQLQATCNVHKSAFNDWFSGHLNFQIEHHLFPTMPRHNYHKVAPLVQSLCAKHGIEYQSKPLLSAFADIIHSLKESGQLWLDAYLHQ
Method in brief: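 Membranes from D5D-overexpressing HEK293 6E cells (10 μg/mL final) in pH 7.5 Tris buffer with MgCl2, octyl glucoside and TCEP were run with substrate solution holding 0.01 mM DGLA, NADH, ATP and CoA for 1 h at ambient temperature. Acetonitrile quench; DGLA-CoA and arachidonyl-CoA measured by RapidFire MRM-MS; 4-parameter IC50, ≥2 runs averaged.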

Delta-5-Desaturase (D5D) = target: T2, Delta-5-Desaturase (D5D) (Mus musculus, UniProt Q920L1); test: In vivo measurement of Delta-5-Desaturase inhibitory activity (plasma AA/DGLA ratio in DIO mice); conditions: single oral dose 30 mg/kg, relative to vehicle group
T2 construct: tissue Jackson Laboratories strain #3800050; host or cells: whole animal (DIO mice)
T2 sequence (Q920L1 1-447): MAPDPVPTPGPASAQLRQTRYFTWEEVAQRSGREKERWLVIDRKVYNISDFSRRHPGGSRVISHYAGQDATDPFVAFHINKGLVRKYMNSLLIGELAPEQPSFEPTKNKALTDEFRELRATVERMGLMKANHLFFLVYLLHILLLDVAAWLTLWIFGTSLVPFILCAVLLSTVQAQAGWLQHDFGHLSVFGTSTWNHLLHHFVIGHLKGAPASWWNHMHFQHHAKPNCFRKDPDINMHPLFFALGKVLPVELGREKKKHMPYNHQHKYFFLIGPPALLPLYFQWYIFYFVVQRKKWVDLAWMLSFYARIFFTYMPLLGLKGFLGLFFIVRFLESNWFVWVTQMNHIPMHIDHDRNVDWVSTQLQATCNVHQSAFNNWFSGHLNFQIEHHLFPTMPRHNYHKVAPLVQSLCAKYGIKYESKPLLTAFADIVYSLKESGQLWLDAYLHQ
Procedure: In Vivo Measurement of Delta-5-Desaturase Inhibitory Activity
Diet-induced obese (DIO; Jackson Laboratories strain #[…]) mice were used to screen for pharmacodynamic (PD) activity of test compounds. Generally, 14 to 24 week old DIO mice, were administered test compounds formulated in the vehicle of 2% hydroxypropyl methylcellulose (HPMC) and 1% Tween80. Animals were dosed on body weight by oral gavage with a single dose (30 mg/kg) for PD studies. Necropsy included plasma collection for PUFA analysis. 10 μl of plasma or standards diluted in surrogate matrix (65 g/l bovine serum albumin in Dulbecco's phosphate-buffered saline) were mixed with 10 μl of an internal standard (100 μM alpha-linolenic acid-d14 (ALA-d14, Cayman Chemical)) in a 96 well plate. 100 μl of 2N NAOH was added to the mixture for subsequent saponification at 65° C. for 1 hour. The mixture was then acidified with 50 μl of formic acid followed by two consecutive hexane extractions. Hexane (500 μl) was added and the mixture thoroughly mixed by vortexing, followed by centrifugation at 4,000 rpm for 15 min. The hexane phase was transferred to a new 1 ml 96 well plate and the remaining aqueous layer was extracted with hexane. The organic extracts were combined and the solvent was removed by placing the plate under nitrogen gas at 55° C. 250 μl of 90% methanol was added to the plate followed by vortexing for 2 minutes. 200 μl of the samples were transferred to a new 96 well polypropylene plate. The samples were analyzed on a LC-MS/MS for the following PUFAs: arachidonic acid (AA), dihomo-gamma-linolenic acid (DGLA), with ALA-d14 as the internal standard. Description of the LC-MS/MS method: 5 μl of sample was injected onto a Poroshell 120 EC-C18 3.0×50 mm, 1.9 μm id column. […] The PUFA peak areas were quantified by using the SCIEX Analyst software. […] The relative decrease of the AA/DGLA ratio of the test compound administered group relative to the vehicle administered group was calculated and used as an index for the degree of D5D inhibition. […]

SMILES | pIC50 [1] | Average % D5D Inhibition expressed as Plasma Endogenous AA/DGLA Ratio (Delta-5-Desaturase (D5D)) [%]
Cn1c(Cl)cn2c(=O)c(-c3cnn(CC(F)(F)C(F)(F)F)c3)c(C(F)(F)F)nc12 [Example 48, 2-chloro-1-methyl-6-[1-(2,2,3,3,3-pentafluoropropyl)-1H-pyrazol-4-yl]-7-(trifluoromethyl)-1H,5H-imidazo[1,2-a]pyrimidin-5-one] | 8.17 | 68
Cc1cn2c(=O)c(-c3cnn(CC(F)(F)C(F)(F)F)c3)c(C(F)(F)F)nc2n1C [Example 52, 1,2-dimethyl-6-[1-(2,2,3,3,3-pentafluoropropyl)-1H-pyrazol-4-yl]-7-(trifluoromethyl)-1H,5H-imidazo[1,2-a]pyrimidin-5-one] | 7.32 | 74
